Measured values published in patent publication US10111881B2 (priority 2016, dated 2018).
Entries after “also recorded” stand apart in the source; their conditions may differ. Where two headings read alike, the source gives them in different places.

What was measured:
HeLa cells [1] = format: cell-based, human; conditions: for Dextran Uptake: 50 μM
[2] = test system: Baby hamster kidney fibroblasts (BHK) cells; assay: Acridine orange assay for acidification blockers; format: cell-based
HeLa cells [3] = test system: HeLa cells
MARV = assay: microbe, parasite or virus in culture; format: cell-based, Marburgvirus (Musoke strain)
EBOV [4] = assay: organism not typed; format: cell-based, Zaire Ebolavirus (Mayinga strain)
EBOV [5] = assay: microbe, parasite or virus in culture; format: cell-based, Zaire Ebolavirus (Mayinga strain)
EBOV [6] = format: cell-based, Zaire Ebolavirus (Mayinga strain)
HeLa cells [7] = format: cell-based, human; conditions: for Transferrin uptake: 50 μM
Cathepsin = Cathepsin cleavage of GP
NPC1 C-loop = biological target: T1, NPC1 C-loop (Homo sapiens, UniProt O15118); assay: NPC1 C-loop binding
T1 construct: C-loop
T1 sequence (O15118 372-620 limits assumed): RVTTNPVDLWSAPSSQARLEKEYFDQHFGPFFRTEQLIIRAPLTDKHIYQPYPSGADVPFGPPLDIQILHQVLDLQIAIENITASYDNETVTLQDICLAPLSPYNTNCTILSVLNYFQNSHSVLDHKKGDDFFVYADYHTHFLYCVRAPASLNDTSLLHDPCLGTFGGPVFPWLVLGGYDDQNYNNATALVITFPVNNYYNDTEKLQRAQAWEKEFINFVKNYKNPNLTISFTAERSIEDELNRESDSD

IL-1-Beta = conditions: PubChem / MLSMR data; cited from earlier work
EEA1-positive vesicles = format: cell-based, human
LAMP1-positive vesicles = format: cell-based, human
[8] = read-out: Activity in macrophages IC50

Structure (SMILES) | Curve class (MARV) (MARV) | MARV (Curve class) (MARV) | IC50 (MARV; read-out: IC-50 (MARV)) [µM] | IC50 (MARV; read-out: MARV HeLa IC50) [µM] | Curve Class (EBOV) (EBOV [4]) | EBOV (curve class) (EBOV [4]) | IC50 (EBOV [4]; read-out: EBOV HeLa IC50) [µM] | IC50 (EBOV [4]; read-out: IC-50 (EBOV)) [µM] | IC50 (EBOV [5]; [8]) [µM] | Surface interaction (EBOV [6]) | Uninfected cell number (EBOV [6]) | Dextran Uptake (HeLa cells [1]) | Transferrin uptake (HeLa cells [7]) | Acidification Block [2] | Cathepsin clevage (Cathepsin) | NPC1 C-loop binding (NPC1 C-loop) | effect on transferrin uptake (HeLa cells [7]) | other results
CCN(c1nc(N)c(C(=O)NC(=N)N)nc1Cl)C(C)C [EIPA, reference compound] |  |  |  |  |  |  |  |  |  |  |  |  |  |  |  |  |  | reduction of uptake of fluorescently labeled dextran (HeLa cells [1]): 95%; effect on endosomal acidification [2]: decreases endosomal acidification; toxic concentration (not toxic up to / toxic at) (HeLa cells [3]): 37 µM
C=C(c1ccc(O)cc1)c1ccc(O)cc1 [MLS000078751] | 1.5 | 1.5 | 6.13 | 6.1 | 1.3 | 1.3 | 25.6 | 25.6 | ~25 | − | + | 0 | 0 | − | 0 | 0 |  | decrease in total viral particles bound to cell surface (EBOV [6]): 53%; virus particle uptake (EBOV [6]): reduced particle uptake; secretion of IL-1-Beta (IL-1-Beta): inhibit secretion of IL-1-Beta
CC(C)(CS(=O)(=O)[O-])NC(=O)CC[N+](C)(C)CCO [MLS000554255] | 1.3 | 1.3 | 6.39 | 6.4 | 1.5 | 1.5 | 6.8 | 6.84 | 6 | 0 | + | 0 | 0 | − | 0 | 0 | do not inhibit transferrin uptake | number of cells without virus bound (EBOV [6]): increased the number of cells without virus bound; Effect on EEA1 (EEA1-positive vesicles): +; increase of colocalization of VLPs with EEA1-positive vesicles (EEA1-positive vesicles): 83%; Effect on LAMP1 (LAMP1-positive vesicles): −; reduction of number of VLPs present in LAMP1-positive vesicles (LAMP1-positive vesicles): 33%
Cc1cc(N2CCN(C)CC2)nc2ccc(NC(=S)NCCCN3CCc4ccccc4C3)cc12 [MLS000730532] | 1.3 | 1.3 | 1.93 | 1.9 |  |  | 1.6 | 1.56 | 9.5 | 0 | 0 | − | − | + | 0 | 0 | impaired uptake of this marker, comparable to chlorpromazine | reduction of number of viral particles inside the cell body (EBOV [6]): 89%; reduction of uptake of fluorescently labeled dextran (HeLa cells [1]): ~74%; effect on endosomal acidification [2]: affected endosomal acidification; secretion of IL-1-Beta (IL-1-Beta): inhibit secretion of IL-1-Beta
Cc1cc(-c2nn(-c3ccccc3F)cc2CN2CCN(c3ccncc3)CC2)c(C)s1 [MLS000733230, 1-[[3-(2,5-dimethylthiophen-3-yl)-1-(2-fluorophenyl)pyrazol-4-yl]methyl]-4-pyridin-4-ylpiperazine] | 1.3 | 1.3 |  |  | 1.3 | 1.3 |  |  |  | 0 | 0 | − | 0 | + | 0 | 0 | no effect on transferrin uptake | IC50 (MARV; Orthomarburgvirus, HeLa, read-out: IC-50 (MARV)): 11.7 µM; IC50 (MARV; Orthomarburgvirus, HeLa, read-out: MARV HeLa IC50 (μM)): 11.7 µM; potency for Ebolavirus inhibition, times better than EIPA (EBOV [4]): 7 times; EC50 (EBOV [4]; HeLa, read-out: EC50 for Ebolavirus inhibition): 6.7 µM; IC50 (EBOV [4]; Zaire ebolavirus, HeLa, read-out: EBOV HeLa IC50 (μM)): 6.7 µM; IC50 (EBOV [4]; Zaire ebolavirus, HeLa, read-out: IC-50 (EBOV)): 6.7 µM; IC50 (EBOV [5]; Zaire ebolavirus, Macrophage, read-out: Activity in macrophages IC50 (μM)): 4.4 µM; reduction of number of viral particles inside the cell body (EBOV [6]): 91%; reduction of uptake of fluorescently labeled dextran (HeLa cells [1]): approximately 91%; effect on endosomal acidification [2]: affected endosomal acidification; toxic concentration (not toxic up to / toxic at) (HeLa cells [3]; human): > 100 µM; secretion of IL-1-Beta (IL-1-Beta): inhibit secretion of IL-1-Beta
Cc1nn2c(NCCCN(C)C)c3c(nc2c1-c1ccccc1)CCCC3 [MLS000762907] | 1.3 | 1.3 | 12.5 | 12.5 | 1.3 | 1.3 | 3.2 | 3.19 | 23.4 | 0 | 0 | 0 | − | + | 0 | 0 | inhibited transferrin uptake; also recorded: reduced uptake of transferrin; also recorded: blocked uptake of transferrin | virus particle binding to cell surface (EBOV [6]): did not affect; effect on macropinocytic uptake of dextran (HeLa cells [1]): not of dextran; also recorded: did not affect; Effect on EEA1 (EEA1-positive vesicles): 0; VLP colocalization with EEA1 (EEA1-positive vesicles): colocalized with EEA1 positive vesicles normally; also recorded: no effect; Effect on LAMP1 (LAMP1-positive vesicles): 0; VLP colocalization with LAMP1 (LAMP1-positive vesicles): no effect
Cc1cc(Cl)cc(C)c1OCCn1ccnc1 [MLS001196083] |  |  | 2.06 |  |  |  |  | 6.19 |  |  |  |  |  |  |  |  |  | 
CN(C)CCCNC(=S)N1CCN(c2nc(-c3ccccc3)cs2)CC1 [MLS001207131] | 1.2 |  | 25.3 |  | 1.3 |  |  | 25.2 |  |  |  |  |  |  |  |  |  | 
COc1ccc(Nc2cc(C)nc3ccc(OC)cc23)cc1 [MLS001209453] | 1.2 |  | 12.5 |  | 1.3 |  |  | 3.4 |  |  |  |  |  |  |  |  |  | 
Cc1ccccc1NC(=O)CSc1ccc(-c2ccccn2)nn1 [MLS001237534] |  |  | 24.8 |  | 4 |  |  |  |  |  |  |  |  |  |  |  |  | 
CN(C)CCCN(C(=O)c1ccc2ccccc2c1)c1nc2cc3c(cc2s1)OCO3.Cl [MLS001239325] | 1.3 |  | 13.3 |  | 1.7 |  |  | 1.55 |  |  |  |  |  |  |  |  |  | 
CCOC(=O)N1CCN(S(=O)(=O)c2ccc(C(=O)N(CCCN(C)C)c3nc4c(C)c(C)ccc4s3)cc2)CC1.Cl [MLS001239358] |  |  | 13 |  | 1.6 |  |  | 0.609 |  |  |  |  |  |  |  |  |  | 
C=C1C(=O)c2sccc2C(c2ccc(OC)c(OC)c2)C1COC(C)=O (stereo not drawn) [MLS002702500] | 1.3 |  | 2.06 |  |  |  |  | 5.93 |  |  |  |  |  |  |  |  |  | 
